Results from article PMC6054150, “Cytokinin perception in potato: new features of canonical players” (Journal of Experimental Botany, 2018).
“And” between values parts separate entries of the source, which are not always exact repeats. Equal values may be shown once. Read-outs that look alike come from different tables or passages of the source. Values belong to the compound of their own block, whether it stands above or below them.

Experiments:
StHK3aSM = StHK3aSM (Solanum tuberosum, UniProt A0A2U9K793); experiment: Plant membrane (tobacco microsome) hormone binding assay with [3H]trans-zeatin, StHK3a sensory module
Text: (§1) The transient transformation of tobacco (Nicotiana benthamiana Domin) leaves was accomplished according to [Sparkes et al. (2006)]. Eight-week-old tobacco plants were infiltrated with a mixture of Agrobacterium tumefaciens carrying CK receptor genes fused to green fluorescent protein (GFP) and the A. tumefaciens helper strain p19 ([Voinnet et al., 2003]), and the expression of receptor genes was checked after 5–6 d with a fluorescence microscope, Axio Imager Z2 (Carl Zeiss Microscopy GmbH), before leaves were processed further for microsome isolation.
(§2) All manipulations were done at 4 °C. Tobacco leaves 6 d after infiltration were homogenized in buffer (3 ml per 1 g of fresh weight) containing 100 mM Tris–HCl (pH 8.0), 2 mM Na2-EDTA, 50 mM KCl, 1 mM DTT, and 1 mM phenylmethylsulfonyl fluoride. The homogenate was filtered through Miracloth (Calbiochem, San Diego, CA, USA), and the filtrate was centrifuged for 5 min at 5000 g. Then supernatant was centrifuged for 40 min at 15000 g. The microsome pellet was resuspended in 50 mM KCl–10% glycerol and the microsome suspension was stored at −70 °C.
(§3) Ligand binding studies were performed in PBS as described previously ([Romanov et al., 2005]; [Lomin et al., 2015]). Studies of pH influence on hormone binding were performed in 50 mM MES–KOH (pH 5–7) or Tris–HCl (pH 7–9) buffers with 50 mM KCl. Kd for [^3H]trans-zeatin (tZ) binding to different receptors was determined in saturation assays followed by data analysis in Scatchard plots.
(§4) To analyse ligand-binding properties of the receptors, a recently developed plant membrane assay system ([Lomin et al., 2015]) was used. Predicted potato CK receptor genes were cloned into pB7FWG2 vectors for transient expression in tobacco leaves. […] Instead of full-length receptor, we clond a genomic sequence of the StHK3a sensory module flanked by transmembrane domains. From the transiently transformed tobacco leaves, a microsomal fraction enriched with individual potato receptors was obtained. The binding assays were conducted using this fraction and tritium-labeled CK. In aggregate, we tested four putative receptors belonging to all three clades: StHK2a, StHK3a (sensory module, further designated as StHK3aSM), StHK4a, and StHK4b.
(§5) First, we determined the pH-dependence of hormone binding to these receptors within the pH range of 5–9 (Fig. 5).
(§6) The interaction of a hormone with a receptor is characterized by the equilibrium dissociation constant (Kd) of the ligand–receptor complex. Kd values were determined by the dose-dependent binding of labeled trans-zeatin to StHKs, and the results were processed by the Scatchard method (Supplementary Fig. S7; [Lomin and Romanov, 2008]).
(§7) Different CKs are usually present in the plant: trans- and cis-zeatins (tZ and cZ), isopentenyladenine (iP), and dihydrozeatin (DZ). In addition to natural CKs, there are many synthetic ones. […] We studied the ligand specificity of putative receptors in competitive experiments where binding of labeled CK was carried out in the presence of various concentrations of certain unlabeled ligands. Based on the obtained competition curves (Supplementary Fig. S8), the apparent Kd values were determined for each ligand as described ([Lomin and Romanov, 2008]). We analysed the interaction of StHKs with six CKs, including five natural ones as well as the synthetic urea-type CK thidiazuron (Table 3).

StHK2a = StHK2a (Solanum tuberosum, UniProt A0A2P1D005); experiment: Plant membrane (tobacco microsome) hormone binding assay with [3H]trans-zeatin, StHK2a
Text: as §1, §2, §3, §4, §5, §6, §7

StHK4b = StHK4b (Solanum tuberosum, UniProt A0A2U9K786); experiment: Plant membrane (tobacco microsome) hormone binding assay with [3H]trans-zeatin, StHK4b
Text: as §1, §2, §3, §4, §5, §6, §7

StHK4a = StHK4a (Solanum tuberosum, UniProt A0A2U9K790); experiment: Plant membrane (tobacco microsome) hormone binding assay with [3H]trans-zeatin, StHK4a
Text: as §1, §2, §3, §4, §5, §6, §7

StRR-A genes = experiment: qRT-PCR of type A response regulator gene expression after BA treatment of potato plants; assay type: in vivo, Solanum tuberosum; settings: 1 μM BA, 1 h; 1.5% sucrose
Procedure: (§8) Potato cv. Désirée plants were cultivated under standard in vitro conditions at a long (16 h) day for 5–6 weeks on liquid MS medium containing 1.5% or 5% sucrose. For hormone treatment, the medium was replaced with the same one supplemented with N^6-benzyladenine (BA, 1 μM). Tubes were inverted several times to assure uniform plant wetting and then incubated for 1 h under standard conditions. Finally, plant organs (leaves, stems, roots, tubers) were isolated and immediately frozen in liquid nitrogen. Control plants were treated in the same way but without hormone. Total RNA was isolated by the Trizol method ([Brenner et al., 2005]), and served as the template for cDNA synthesis by reverse transcription (Invitrogen). All RNA samples were treated with RNase-free DNase I. The resulting cDNA was checked for genomic DNA contamination by PCR with primers differentiating cDNA and genomic DNA. The band derived from genomic DNA was absent in the separating gel. Expression of genes encoding predicted proteins of the CK signaling system was determined by qRT-PCR. Potato housekeeping genes StEF1α (elongation factor 1-α, AB061263) and StCYC (cyclophilin, AF126551) were used as reference genes ([Nicot et al., 2005]). […]
To validate the results of CK treatment experiments, the effect of CK administration on the transcript level of the genes of type A response regulator (RR-A) genes was analysed. […]

StHK4 expression = experiment: qRT-PCR of CK receptor gene expression after BA treatment of potato plants; assay type: in vivo, Solanum tuberosum; settings: leaves; 1.5% sucrose; 1 μM BA, 1 h; on average
Procedure: as §8
At 1.5% sucrose, the up-regulation (on average, 2.5-fold) of StHK4 expression was regularly recorded, but only in leaves (Fig. 8). […]

[1] = molecular target: StHKs (StHK2a, StHK3aSM, StHK4a, StHK4b); experiment: Competitive binding, summary over the analysed StHKs; parameters: species or system Solanum tuberosum; settings: span over StHK2a, read-out: apparent Kd, all analysed StHKs
Procedure: as §3
as §4, with “In aggregate, we tested four putative receptors belonging to all three clades: StHK2a, StHK3a (sensory module, further designated as StHK3aSM), StHK4a, and StHK4b.” left out
Different CKs are usually present in the plant: trans- and cis-zeatins (tZ and cZ), isopentenyladenine (iP), and dihydrozeatin (DZ). […] Based on the obtained competition curves (Supplementary Fig. S8), the apparent Kd values were determined for each ligand as described ([Lomin and Romanov, 2008]). We analysed the interaction of StHKs with six CKs, including five natural ones as well as the synthetic urea-type CK thidiazuron (Table 3).

[2] = sensory module, competition with labeled trans-zeatin (tZ value from saturation/Scatchard), mean ± SE, read-out: Apparent Kd StHK3a SM
[3] = competition with labeled trans-zeatin (tZ value from saturation/Scatchard); mean ± SE; read-out: Apparent Kd StHK2a
[4] = competition with labeled trans-zeatin (tZ value from saturation/Scatchard), mean ± SE, read-out: Apparent Kd StHK4b
[5] = competition with labeled trans-zeatin (tZ value from saturation/Scatchard), mean ± SE, read-out: Apparent Kd StHK4a

Chain of StHK4b (A0A2U9K786 entry or part of it): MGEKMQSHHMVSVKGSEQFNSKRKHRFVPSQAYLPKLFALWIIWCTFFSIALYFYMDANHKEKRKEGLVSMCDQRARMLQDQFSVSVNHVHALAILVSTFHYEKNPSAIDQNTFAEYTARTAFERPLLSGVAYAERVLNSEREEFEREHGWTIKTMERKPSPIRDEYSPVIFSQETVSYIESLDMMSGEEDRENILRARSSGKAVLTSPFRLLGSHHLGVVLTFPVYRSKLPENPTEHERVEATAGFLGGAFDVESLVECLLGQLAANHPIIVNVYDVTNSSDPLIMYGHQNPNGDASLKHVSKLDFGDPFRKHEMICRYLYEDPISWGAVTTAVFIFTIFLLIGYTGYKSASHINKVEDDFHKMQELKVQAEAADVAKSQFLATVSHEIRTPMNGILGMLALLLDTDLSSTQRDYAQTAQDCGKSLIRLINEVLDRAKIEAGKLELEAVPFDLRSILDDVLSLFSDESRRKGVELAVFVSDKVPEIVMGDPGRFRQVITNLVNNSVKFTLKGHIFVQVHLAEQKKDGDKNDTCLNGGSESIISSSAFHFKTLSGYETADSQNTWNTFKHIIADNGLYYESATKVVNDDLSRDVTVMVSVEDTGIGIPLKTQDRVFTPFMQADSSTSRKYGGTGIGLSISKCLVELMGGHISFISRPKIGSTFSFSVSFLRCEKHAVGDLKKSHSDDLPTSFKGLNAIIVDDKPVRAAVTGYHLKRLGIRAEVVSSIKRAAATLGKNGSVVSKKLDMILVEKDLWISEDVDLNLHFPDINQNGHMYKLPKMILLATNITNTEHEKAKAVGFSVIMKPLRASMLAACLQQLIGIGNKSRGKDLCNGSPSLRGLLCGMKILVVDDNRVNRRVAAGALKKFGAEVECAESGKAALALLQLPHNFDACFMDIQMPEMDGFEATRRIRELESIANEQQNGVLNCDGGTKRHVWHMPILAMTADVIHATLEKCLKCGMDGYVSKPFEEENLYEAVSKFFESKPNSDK
Chain of StHK2a (A0A2P1D005 entry or part of it): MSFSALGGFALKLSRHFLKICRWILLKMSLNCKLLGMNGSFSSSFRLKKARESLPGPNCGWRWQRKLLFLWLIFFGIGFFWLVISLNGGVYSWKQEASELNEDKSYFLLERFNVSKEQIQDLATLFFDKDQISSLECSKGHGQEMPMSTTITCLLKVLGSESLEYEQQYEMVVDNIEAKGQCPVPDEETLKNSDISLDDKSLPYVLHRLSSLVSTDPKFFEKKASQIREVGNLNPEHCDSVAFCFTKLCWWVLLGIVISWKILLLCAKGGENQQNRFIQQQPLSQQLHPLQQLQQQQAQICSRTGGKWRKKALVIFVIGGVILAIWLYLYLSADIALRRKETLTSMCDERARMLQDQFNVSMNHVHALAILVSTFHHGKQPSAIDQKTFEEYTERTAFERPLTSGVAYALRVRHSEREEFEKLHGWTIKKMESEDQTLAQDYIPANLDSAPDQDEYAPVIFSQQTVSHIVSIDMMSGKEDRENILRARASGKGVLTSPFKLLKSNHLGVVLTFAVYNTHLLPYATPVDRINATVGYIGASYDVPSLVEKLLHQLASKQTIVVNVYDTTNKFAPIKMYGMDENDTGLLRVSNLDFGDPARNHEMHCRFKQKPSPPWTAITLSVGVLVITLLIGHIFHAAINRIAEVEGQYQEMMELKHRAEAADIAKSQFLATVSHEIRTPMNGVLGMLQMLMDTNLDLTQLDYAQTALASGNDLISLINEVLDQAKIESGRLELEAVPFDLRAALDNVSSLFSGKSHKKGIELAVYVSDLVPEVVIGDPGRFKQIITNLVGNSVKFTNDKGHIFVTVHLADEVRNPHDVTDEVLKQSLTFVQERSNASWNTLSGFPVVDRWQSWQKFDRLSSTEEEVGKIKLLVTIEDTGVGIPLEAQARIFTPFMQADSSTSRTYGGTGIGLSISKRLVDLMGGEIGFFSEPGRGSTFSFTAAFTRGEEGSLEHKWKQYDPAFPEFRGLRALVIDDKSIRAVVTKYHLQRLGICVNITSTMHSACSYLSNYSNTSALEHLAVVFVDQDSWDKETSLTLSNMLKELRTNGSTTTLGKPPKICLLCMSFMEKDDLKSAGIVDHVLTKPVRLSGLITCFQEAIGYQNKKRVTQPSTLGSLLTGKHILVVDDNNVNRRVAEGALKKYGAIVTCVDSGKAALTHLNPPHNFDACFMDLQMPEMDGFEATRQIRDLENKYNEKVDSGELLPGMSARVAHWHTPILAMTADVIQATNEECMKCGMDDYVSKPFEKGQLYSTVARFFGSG
Chain of StHK3aSM (A0A2U9K793 entry or part of it): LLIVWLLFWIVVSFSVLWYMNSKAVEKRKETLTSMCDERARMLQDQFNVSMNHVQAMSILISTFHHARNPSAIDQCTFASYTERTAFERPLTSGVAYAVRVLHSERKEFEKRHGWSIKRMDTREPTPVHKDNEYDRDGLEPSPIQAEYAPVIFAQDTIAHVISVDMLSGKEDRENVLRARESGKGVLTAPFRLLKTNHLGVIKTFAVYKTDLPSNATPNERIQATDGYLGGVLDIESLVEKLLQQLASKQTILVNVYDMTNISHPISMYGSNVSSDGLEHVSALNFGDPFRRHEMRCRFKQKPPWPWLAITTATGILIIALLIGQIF
Chain of StHK4a (A0A2U9K790 entry or part of it): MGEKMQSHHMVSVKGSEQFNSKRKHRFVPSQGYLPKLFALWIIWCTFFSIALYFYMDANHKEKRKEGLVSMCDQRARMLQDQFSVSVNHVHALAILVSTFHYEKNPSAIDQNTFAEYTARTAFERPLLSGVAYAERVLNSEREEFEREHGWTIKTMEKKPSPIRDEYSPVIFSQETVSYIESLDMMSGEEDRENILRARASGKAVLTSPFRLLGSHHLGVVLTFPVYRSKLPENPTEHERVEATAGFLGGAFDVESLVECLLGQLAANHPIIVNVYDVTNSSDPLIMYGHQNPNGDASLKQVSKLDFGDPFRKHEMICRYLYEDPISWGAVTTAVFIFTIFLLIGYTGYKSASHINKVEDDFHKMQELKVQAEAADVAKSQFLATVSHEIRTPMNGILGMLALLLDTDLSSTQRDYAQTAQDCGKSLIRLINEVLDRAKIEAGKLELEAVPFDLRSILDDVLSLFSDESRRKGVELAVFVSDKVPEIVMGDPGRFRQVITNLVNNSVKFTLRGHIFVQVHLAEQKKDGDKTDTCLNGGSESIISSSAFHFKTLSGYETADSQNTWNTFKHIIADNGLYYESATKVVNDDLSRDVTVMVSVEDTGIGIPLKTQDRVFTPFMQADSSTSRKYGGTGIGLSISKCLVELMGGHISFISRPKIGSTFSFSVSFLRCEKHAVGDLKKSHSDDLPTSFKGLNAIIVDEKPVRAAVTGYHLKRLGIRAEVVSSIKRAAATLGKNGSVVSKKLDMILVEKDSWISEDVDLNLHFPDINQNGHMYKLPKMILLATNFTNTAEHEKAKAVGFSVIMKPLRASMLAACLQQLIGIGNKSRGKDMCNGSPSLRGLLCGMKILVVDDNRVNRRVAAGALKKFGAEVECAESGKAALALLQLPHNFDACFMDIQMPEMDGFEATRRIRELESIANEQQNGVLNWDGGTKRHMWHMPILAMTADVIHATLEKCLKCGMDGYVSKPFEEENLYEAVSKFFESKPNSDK

Kd (StHK3aSM; [2]): ~21 nM and 21 nM
Kd (StHK2a; [3]): 169 ± 18 nM
Kd (StHK4b; [4]): 227 ± 33 nM
Kd (StHK4a; [5]): 178 ± 37 nM
SMILES: CC(CO)CCNc1ncnc2nc[nH]c12 (stereo not drawn) [Dihydrozeatin]

SMILES: c1ccc(CNc2ncnc3nc[nH]c23)cc1 [N ^6-Benzyladenine]
expression of StRR-A genes (StRR-A genes): rapid and reliable increase
Kd (StHK3aSM; Apparent Kd StHK3a SM, sensory module, competition with labeled trans-zeatin (tZ value from saturation/Scatchard), mean ± SE): 49 ± 7 nM
up-regulation of StHK4 expression (BA/control) (StHK4 expression): 2.5 fold
Kd (StHK2a; read-out: Apparent Kd StHK2a; competition with labeled trans-zeatin (tZ value from saturation/Scatchard); mean ± SE): 45 ± 3.5 nM
Kd (StHK4b): 63 ± 12 nM
Kd (StHK4a): 55 ± 7 nM

Kd (StHK3aSM; [2]): 5.2 ± 0.8 nM
Kd (StHK2a; [3]): 2.4 ± 0.2 nM
Kd (StHK4b; [4]): 2.5 ± 0.3 nM
Kd (StHK4a; [5]): 2.1 ± 0.2 nM
SMILES: CC(C)=CCNc1ncnc2nc[nH]c12 [N ^6-Isopentenyladenine]

SMILES: O=C(Nc1ccccc1)Nc1cnns1 [Thidiazuron]
Kd (StHK3aSM; [2]): 2.3 ± 0.5 nM
Kd (StHK2a; [3]): 1.4 ± 0.04 nM
Kd (StHK4b; [4]): 17.2 ± 2.5 nM
Kd (StHK4a; [5]): 12.6 ± 1.9 nM

Kd [1]: > 100 nM
Kd (StHK3aSM; read-out: Apparent Kd StHK3a SM): 110 ± 39 nM
Kd (StHK2a; read-out: Apparent Kd StHK2a): 102 ± 7 nM
Kd (StHK4b; read-out: Apparent Kd StHK4b): 129 ± 19 nM
Kd (StHK4a; read-out: Apparent Kd StHK4a): 106 ± 22 nM
SMILES: C/C(=C/CNc1ncnc2nc[nH]c12)CO [cis-Zeatin]

pH of maximal trans-zeatin binding, StHK3aSM (StHK3aSM): 7
reduction of binding at pH 5 (factor), StHK3aSM (StHK3aSM): 5
Kd (StHK3aSM; [2]): 4.7 ± 0.6 nM
pH of maximal trans-zeatin binding, StHK2a (StHK2a): 7.5
reduction of binding at pH 5 (factor), StHK2a (StHK2a): 2
Kd (StHK2a; [3]): 2.6 ± 0.3 nM
Kd (StHK4b; [4]): 3 ± 0.3 nM
decrease of ligand binding at pH 5, StHK4b (StHK4b; pH 5): about 3 fold
Kd (StHK4a; [5]): 2.5 ± 0.7 nM
decrease of ligand binding at pH 5, StHK4a (StHK4a; pH 5): about 3 fold
SMILES: C/C(=C\CNc1ncnc2[nH]cnc12)CO [trans-Zeatin]
